For experiment [1], the target named is T1, human liver-X-receptor LXRβ (Homo sapiens, UniProt P55055).
T1 construct: expressed in transfected cells; host or cells: HEK293T
As to the kind of experiment: LXRE-luciferase gene reporter assay in HEK293T, LXRβ. The format is cell-based. To be noted: LXRβ; 10 µM 22(R)HC; read-out: IC50, inhibition of LXR-dependent luciferase activity stimulated by 22(R)HC. An excerpt: HEK293T were used for luciferase assays. Cells were transfected using the PolyEthylenImine (PEI) method with human retinoid-X receptor (RXRγ) and human liver-X-receptors (LXRα or LXRβ) with LXRE-Luc; RXRγ and human farnesoid X receptor (FXR) with EcRE-Luc; RXRγ and human steroid and xenobiotic X receptor (SXR) with DR4-Luc; RXRγ and human peroxisome proliferator activated receptors (PPARα, or PPARγ) with PPRE-Luc; RXRγ and human retinoic acid receptor (RARα) with DR1-Luc; human AHR and human ARNT with a DRE-Luc; human vitamin D receptor (VDR) with VDRE-Luc. Cells were transfected with plasmids encoding human glucocorticoid receptor (GR), progesterone receptor (PR), or androgen receptor (AR) with MMTV-Luc; or estrogen receptors (ERα and ERβ) with an ERE-Luc. The day after transfection with the luciferase reporter gene construct, cells were seeded in 12-well plates (50,000 cells per well). […] Luciferase activity was measured using the luciferase assay reagent (Promega), according to the manufacturer’s instructions. Protein concentrations were measured using the Bradford method to normalize luciferase activities. For each condition, luciferase activity was calculated from the data of three independent wells.
For orientation: Reporter assays use an easily measured gene product as a stand-in for the process of interest.

Another experiment has as its system SKMEL-2 cells. As to the kind of experiment: DDA-induced cytotoxicity. In kind it is cell-based. To be noted: Homo sapiens, SK-MEL-2; SKMEL-2 (H), BRaf WT; 72 h; read-out: Cytotox EC50. Here is the method:
(§1) Melanoma cells were seeded into 6-well plates at 60,000 cells per well and AML cells at 250,000 cells/ml. The cells were then treated with control solvent vehicle (1/1000 ethanol in water) or DDA. Where indicated, treated cells were incubated in the presence or absence of each inhibitor for time shown. Cell death was determined by the trypan blue exclusion assay. Cells were scraped and resuspended in trypan blue solution (0.25% (w/v) in PBS) and counted in a Malassez cell under light microscopy. Cell viability was then quantified by counting viable (trypan blue-negative) and dead cells (trypan blue-positive). […]
(§2) (cytotox) and clonogenicity (clono) inhibition in a subset of human (H) and mouse (M)
(§3) m elanom a cell lines. T he BRaf status in m elanom a cells lines is shown. […]

The test system of a further experiment is WM-266-4 cells. As to the kind of experiment: DDA-induced cytotoxicity. The format is cell-based. To be noted: Homo sapiens; WM-266-4 (H), BRaf WT; 72 h; read-out: Cytotox EC50. The method, then:
as §1, §2, §3

The subject of a further experiment is WM35 cells. In words: DDA-induced cytotoxicity. In kind it is cell-based. To be noted: Homo sapiens; WM35 (H), BRaf V600E; 72 h; read-out: Cytotox EC50. Here is the method: as §1, §2, §3
A further experiment deals with WM115 cells. As to the kind of experiment: DDA-induced cytotoxicity. The note with it: Homo sapiens, WM-115; WM115 (H), BRaf V600E; 72 h; read-out: Cytotox EC50. In kind it is cell-based. Here is the method:
as §1, §2, §3

The next experiment deals with A375 cells. As to the kind of experiment: DDA-induced cytotoxicity. In kind it is cell-based. The note with it: Homo sapiens, A-375; A375 (H), BRaf V600E; 72 h; read-out: Cytotox EC50. The method, then:
as §1, §2, §3

Another experiment concerns B16F10 cells. As to the kind of experiment: Cell cycle analysis by flow cytometry. The format is cell-based, mouse. To be noted: 5 µM DDA, 48 h. Here is the method: Control and DDA-treated cells were fixed in 70% ethanol and then washed with PBS. Cells were incubated with 100 μg/ml RNase A for 30 min at 37 °C, permeabilized with 0.25% Tween-20, and stained with 50 μg/ml propidium iodide (PI) for 30 min at 37 °C. The DNA content of stained cells was analyzed by flow cytometry. The fraction of cells in sub-G1 phase was calculated using flowJo software (Ashland, Oregon). Data were obtained from 10^5 viable cells. […]
(Flow cytometry measures light scatter and fluorescence of single cells or particles in a stream.)

The next experiment concerns AML patient samples. As to the kind of experiment: Annexin-V/7AAD viability assay on AML patient samples (bulk and CD34+CD38−CD123+ progenitor/LSC). The format is cell-based, human. The note with it: for IC50: Homo sapiens, 48 h, panel of 61 AML patient samples. The method, then: The cytotoxic response to DDA of AML cells was determined by flow cytometry. Cells were exposed to DDA for 24 or 48 h then washed with cold phosphate-buffered saline (PBS) and resuspended in 200 µl of Annexin-V binding buffer. For the analysis of AML patient samples, cells were incubated with antibodies against the surface markers CD45-V450 (clone H130), CD34-PeCy7 (clone 8G12), CD38-APC (clone HB7) and CD123-PE (clone 9F5) (BD Pharmagen) before being resuspended in Annexin-V binding buffer. Annexin-V-fluorescein isothiocyanate (BD Pharmagen, clone 2331) and 7-aminoactinomycin D (7AAD) were then added, and the samples were incubated in the dark at room temperature for 15 min. The percentage of viable cells, Annexin-V-7AAD-negative cells, was scored using a flow cytometer.
AML patient and normal bone marrow samples were obtained from patients in the Hematology Department of Toulouse (France), after obtaining consent in accordance with the Declaration of Helsinki[67], and according to institutional guidelines. Samples were stored at the INSERM-1037 HIMIP collection (no. DC-2008-307-CPTP1 HIMIP). For some experiments, fresh leukemic blasts recovered at diagnosis were immediately treated with DDA. In other cases, frozen cells were thawed in IMDM medium with 20% FBS. Patient characteristics are shown in supplementary data 1. Normal bone marrow cells were subjected to Ficoll-Paque density gradient separation to isolate mononuclear cells, followed by CD34+ cell separation using high-gradient magnetic-activated cell sorting, according to the manufacturer’s manual. The in vivo assays were performed with cryopreserved cells.

Like-named read-outs stand apart in the source and are kept apart here.

The values below come from publication PMC5712521, “Dendrogenin A drives LXR to trigger lethal autophagy in cancers” (Nature Communications, 2017).

T1 sequence (P55055 whole entry): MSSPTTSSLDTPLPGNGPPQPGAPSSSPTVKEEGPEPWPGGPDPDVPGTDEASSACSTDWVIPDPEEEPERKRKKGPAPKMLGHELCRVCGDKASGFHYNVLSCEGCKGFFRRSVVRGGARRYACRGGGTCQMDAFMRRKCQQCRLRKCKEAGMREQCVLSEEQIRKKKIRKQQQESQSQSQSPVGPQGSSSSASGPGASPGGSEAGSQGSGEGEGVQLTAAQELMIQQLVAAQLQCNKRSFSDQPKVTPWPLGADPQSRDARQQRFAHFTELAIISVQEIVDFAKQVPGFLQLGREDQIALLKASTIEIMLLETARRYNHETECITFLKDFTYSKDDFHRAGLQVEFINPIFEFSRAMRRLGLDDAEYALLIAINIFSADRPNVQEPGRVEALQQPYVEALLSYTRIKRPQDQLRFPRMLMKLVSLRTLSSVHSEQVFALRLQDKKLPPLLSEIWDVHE
T1 sequence (P48443 whole entry partner): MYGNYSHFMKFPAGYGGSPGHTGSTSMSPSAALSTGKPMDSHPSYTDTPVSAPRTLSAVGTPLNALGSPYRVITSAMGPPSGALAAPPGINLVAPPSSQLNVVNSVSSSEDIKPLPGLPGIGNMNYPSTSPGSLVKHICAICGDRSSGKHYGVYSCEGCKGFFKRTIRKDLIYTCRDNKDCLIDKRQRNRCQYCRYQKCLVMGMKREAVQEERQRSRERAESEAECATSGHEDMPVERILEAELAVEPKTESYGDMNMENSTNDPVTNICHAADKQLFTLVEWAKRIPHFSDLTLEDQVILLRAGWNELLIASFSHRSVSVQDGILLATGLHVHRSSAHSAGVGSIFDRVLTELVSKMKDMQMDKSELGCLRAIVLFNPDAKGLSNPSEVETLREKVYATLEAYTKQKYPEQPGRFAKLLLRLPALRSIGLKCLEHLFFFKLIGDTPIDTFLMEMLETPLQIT

By IC50 is commonly meant the point on the concentration scale where inhibition reaches its midpoint. The EC50 is the concentration needed to bring the measured effect to its halfway point. For the molecule `CC(C)CCC[C@@H](C)[C@H]1CC[C@H]2[C@@H]3C[C@@H](NCCc4cnc[nH]4)[C@@]4(O)C[C@@H](O)CC[C@]4(C)[C@H]3CC[C@]12C` [DDA, Dendrogenin A], the IC50 in experiment [1] was 76 ± 12 nM; in the experiment on AML patient samples (read-out: median IC50, cell viability), 3300 nM; in the experiment with AML patient samples (read-out: range of IC50, cell viability), 1200 to 11300 nM. The EC50 with SKMEL-2 cells is 2300 ± 100 nM; in the experiment with WM-266-4 cells, 2700 ± 400 nM; with WM35 cells, 1600 ± 100 nM; with WM115 cells, 2200 ± 200 nM; with A375 cells it was 1800 ± 200 nM. Besides, the “Cell cycle distribution: G0/G1” value in the experiment with B16F10 cells worked out at 54.50%. Moreover, the “Cell cycle distribution: G2/M” value in the experiment with B16F10 cells was 9.83%. Moreover, the “Cell cycle distribution: S” value in the experiment on B16F10 cells was 9.68%. Moreover, the “Cell cycle distribution: Sub G0/G1” value in the experiment with B16F10 cells amounted to 25.03%. Moreover, the “efficiency relative to cytarabine” value in the experiment with AML patient samples (AML bulk and progenitor/LSC (CD34+CD38−CD123+) subpopulation) is recorded as 100 fold.
